Experimental data published in ChEMBL document CHEMBL3885881, “DrugMatrix”.

Species: Rattus norvegicus
Test: DrugMatrix - Regimen: Daily Repeat
Assay type: toxicity, organism-based, Sprague-Dawley
Design: regimen Daily Repeat, gender Male, age 6-8 weeks
Conditions: in vivo, po, route oral GAVAGE, vehicle .5 % CMC; for ABSOLUTE BASOPHIL / ABSOLUTE EOSINOPHIL / ABSOLUTE LYMPHOCYTE / ABSOLUTE MONOCYTE / ABSOLUTE SEGMENTED NEUTROPHIL / BASOPHIL / EOSINOPHIL / ERYTHROCYTE COUNT / HEMATOCRIT / HEMOGLOBIN / LEUKOCYTE COUNT / LYMPHOCYTE / MEAN CORPUSCULAR HEMOGLOBIN / MEAN CORPUSCULAR HEMOGLOBIN CONCENTRATION / MEAN CORPUSCULAR VOLUME / MONOCYTE / NEUTROPHIL / NUCLEATED RED BLOOD CELLS / PLATELET COUNT: tissue Blood; for ALANINE AMINOTRANSFERASE / ALBUMIN / ALKALINE PHOSPHATASE / ASPARTATE AMINOTRANSFERASE / BLOOD UREA NITROGEN / CARBON DIOXIDE / CHLORIDE / CHOLESTEROL / CREATINE PHOSPHOKINASE / CREATININE / GLUCOSE / LACTATE DEHYDROGENASE / LIPASE / PHOSPHORUS / POTASSIUM / SODIUM / TOTAL BILIRUBIN / TOTAL PROTEIN / URIC ACID: tissue Plasma
[1] = 1 mg/kg, 72 h, dose level Low, time 3 day
[2] = 1 mg/kg, 120 h, dose level Low, time 5 day
[3] = 68 mg/kg, 72 h, dose level High, time 3 day
[4] = 68 mg/kg, 120 h, dose level High, time 5 day

C[C@]12C=CC(=O)C=C1CC[C@@H]1[C@@H]2C(=O)C[C@@]2(C)[C@H]1CC[C@]2(O)C(=O)CO [PREDNISONE]
ABSOLUTE BASOPHIL [1]: 0 CELLS/uL
ABSOLUTE EOSINOPHIL [1]: 0 CELLS/uL
ABSOLUTE LYMPHOCYTE [1]: 13566 CELLS/uL
ABSOLUTE MONOCYTE [1]: 151.33 CELLS/uL
ABSOLUTE SEGMENTED NEUTROPHIL [1]: 1516 CELLS/uL
BASOPHIL [1]: 0%
EOSINOPHIL [1]: 0%
ERYTHROCYTE COUNT [1]: 5.56 x10E6/uL
HEMATOCRIT [1]: 34.8%
HEMOGLOBIN [1]: 13.33 G/DL
LEUKOCYTE COUNT [1]: 15.23 x10E3/uL
LYMPHOCYTE [1]: 89%
MEAN CORPUSCULAR HEMOGLOBIN [1]: 24 pg
MEAN CORPUSCULAR HEMOGLOBIN CONCENTRATION [1]: 38.33 G/DL
MEAN CORPUSCULAR VOLUME [1]: 62.6 fL
MONOCYTE [1]: 1%
NEUTROPHIL [1]: 10%
NUCLEATED RED BLOOD CELLS [1]: 0.33 /100WBC
PLATELET COUNT [1]: 1291 x10E3/uL
ALANINE AMINOTRANSFERASE [1]: 51.67 u/L
ALBUMIN [1]: 4.43 G/DL
ALKALINE PHOSPHATASE [1]: 455.67 u/L
ASPARTATE AMINOTRANSFERASE [1]: 87.33 u/L
BLOOD UREA NITROGEN [1]: 16 mg/dL
CARBON DIOXIDE [1]: 24 mmol/L
CHLORIDE [1]: 107.33 MEQ/L
CHOLESTEROL [1]: 68.67 mg/dL
CREATINE PHOSPHOKINASE [1]: 294.67 u/L
CREATININE [1]: 0.23 mg/dL
GLUCOSE [1]: 153.33 mg/dL
LACTATE DEHYDROGENASE [1]: 398.67 u/L
LIPASE [1]: 10.67 u/L
PHOSPHORUS [1]: 13.37 mg/dL
POTASSIUM [1]: 7 MEQ/L
SODIUM [1]: 149 MEQ/L
TOTAL BILIRUBIN [1]: 0.27 mg/dL
TOTAL PROTEIN [1]: 6.23 G/DL
URIC ACID [1]: 1.53 mg/dL
ABSOLUTE BASOPHIL [2]: 0 CELLS/uL
ABSOLUTE EOSINOPHIL [2]: 43 CELLS/uL
ABSOLUTE LYMPHOCYTE [2]: 10491.67 CELLS/uL
ABSOLUTE MONOCYTE [2]: 227.33 CELLS/uL
ABSOLUTE SEGMENTED NEUTROPHIL [2]: 1004.67 CELLS/uL
BASOPHIL [2]: 0%
EOSINOPHIL [2]: 0.33%
ERYTHROCYTE COUNT [2]: 6.03 x10E6/uL
HEMATOCRIT [2]: 38.43%
HEMOGLOBIN [2]: 14.23 G/DL
LEUKOCYTE COUNT [2]: 11.77 x10E3/uL
LYMPHOCYTE [2]: 89%
MEAN CORPUSCULAR HEMOGLOBIN [2]: 23.67 pg
MEAN CORPUSCULAR HEMOGLOBIN CONCENTRATION [2]: 37.03 G/DL
MEAN CORPUSCULAR VOLUME [2]: 63.87 fL
MONOCYTE [2]: 2%
NEUTROPHIL [2]: 8.67%
NUCLEATED RED BLOOD CELLS [2]: 0 /100WBC
PLATELET COUNT [2]: 1197.33 x10E3/uL
ALANINE AMINOTRANSFERASE [2]: 65 u/L
ALBUMIN [2]: 4.63 G/DL
ALKALINE PHOSPHATASE [2]: 455 u/L
ASPARTATE AMINOTRANSFERASE [2]: 98.67 u/L
BLOOD UREA NITROGEN [2]: 16.33 mg/dL
CARBON DIOXIDE [2]: 24 mmol/L
CHLORIDE [2]: 104.67 MEQ/L
CHOLESTEROL [2]: 69.33 mg/dL
CREATINE PHOSPHOKINASE [2]: 336 u/L
CREATININE [2]: 0.19 mg/dL
GLUCOSE [2]: 168.67 mg/dL
LACTATE DEHYDROGENASE [2]: 329 u/L
LIPASE [2]: 10.33 u/L
PHOSPHORUS [2]: 15.57 mg/dL
POTASSIUM [2]: 7.49 MEQ/L
SODIUM [2]: 147.77 MEQ/L
TOTAL BILIRUBIN [2]: 0.17 mg/dL
TOTAL PROTEIN [2]: 6.6 G/DL
URIC ACID [2]: 2.67 mg/dL
ABSOLUTE BASOPHIL [3]: 0 CELLS/uL
ABSOLUTE EOSINOPHIL [3]: 35 CELLS/uL
ABSOLUTE LYMPHOCYTE [3]: 7367 CELLS/uL
ABSOLUTE MONOCYTE [3]: 79.33 CELLS/uL
ABSOLUTE SEGMENTED NEUTROPHIL [3]: 1085.33 CELLS/uL
BASOPHIL [3]: 0%
EOSINOPHIL [3]: 0.33%
ERYTHROCYTE COUNT [3]: 5.88 x10E6/uL
HEMATOCRIT [3]: 37.6%
HEMOGLOBIN [3]: 13.93 G/DL
LEUKOCYTE COUNT [3]: 8.57 x10E3/uL
LYMPHOCYTE [3]: 86%
MEAN CORPUSCULAR HEMOGLOBIN [3]: 23.7 pg
MEAN CORPUSCULAR HEMOGLOBIN CONCENTRATION [3]: 37.07 G/DL
MEAN CORPUSCULAR VOLUME [3]: 64 fL
MONOCYTE [3]: 1%
NEUTROPHIL [3]: 12.67%
NUCLEATED RED BLOOD CELLS [3]: 0.33 /100WBC
PLATELET COUNT [3]: 1265.33 x10E3/uL
ALANINE AMINOTRANSFERASE [3]: 45.33 u/L
ALBUMIN [3]: 4.9 G/DL
ALKALINE PHOSPHATASE [3]: 446 u/L
ASPARTATE AMINOTRANSFERASE [3]: 84 u/L
BLOOD UREA NITROGEN [3]: 18.33 mg/dL
CARBON DIOXIDE [3]: 17 mmol/L
CHLORIDE [3]: 102 MEQ/L
CHOLESTEROL [3]: 71.33 mg/dL
CREATINE PHOSPHOKINASE [3]: 290.67 u/L
CREATININE [3]: 0.2 mg/dL
GLUCOSE [3]: 148 mg/dL
LACTATE DEHYDROGENASE [3]: 411.33 u/L
LIPASE [3]: 11.33 u/L
PHOSPHORUS [3]: 13.93 mg/dL
POTASSIUM [3]: 7.66 MEQ/L
SODIUM [3]: 147.03 MEQ/L
TOTAL BILIRUBIN [3]: 0.27 mg/dL
TOTAL PROTEIN [3]: 6.87 G/DL
URIC ACID [3]: 2.23 mg/dL
ABSOLUTE BASOPHIL [4]: 0 CELLS/uL
ABSOLUTE EOSINOPHIL [4]: 26.33 CELLS/uL
ABSOLUTE LYMPHOCYTE [4]: 7838.33 CELLS/uL
ABSOLUTE MONOCYTE [4]: 52.67 CELLS/uL
ABSOLUTE SEGMENTED NEUTROPHIL [4]: 1616 CELLS/uL
BASOPHIL [4]: 0%
EOSINOPHIL [4]: 0.33%
ERYTHROCYTE COUNT [4]: 6.38 x10E6/uL
HEMATOCRIT [4]: 39.03%
HEMOGLOBIN [4]: 14.3 G/DL
LEUKOCYTE COUNT [4]: 9.53 x10E3/uL
LYMPHOCYTE [4]: 81.33%
MEAN CORPUSCULAR HEMOGLOBIN [4]: 22.43 pg
MEAN CORPUSCULAR HEMOGLOBIN CONCENTRATION [4]: 36.63 G/DL
MEAN CORPUSCULAR VOLUME [4]: 61.17 fL
MONOCYTE [4]: 0.67%
NEUTROPHIL [4]: 17.67%
NUCLEATED RED BLOOD CELLS [4]: 0 /100WBC
PLATELET COUNT [4]: 1351.33 x10E3/uL
ALANINE AMINOTRANSFERASE [4]: 47 u/L
ALBUMIN [4]: 4.67 G/DL
ALKALINE PHOSPHATASE [4]: 399 u/L
ASPARTATE AMINOTRANSFERASE [4]: 95.33 u/L
BLOOD UREA NITROGEN [4]: 19 mg/dL
CARBON DIOXIDE [4]: 30.67 mmol/L
CHLORIDE [4]: 103.33 MEQ/L
CHOLESTEROL [4]: 49 mg/dL
CREATINE PHOSPHOKINASE [4]: 935.33 u/L
CREATININE [4]: 0.2 mg/dL
GLUCOSE [4]: 169 mg/dL
LACTATE DEHYDROGENASE [4]: 578.33 u/L
LIPASE [4]: 12.33 u/L
PHOSPHORUS [4]: 13.23 mg/dL
POTASSIUM [4]: 6.47 MEQ/L
SODIUM [4]: 147.4 MEQ/L
TOTAL BILIRUBIN [4]: 0.27 mg/dL
TOTAL PROTEIN [4]: 6.8 G/DL
URIC ACID [4]: 1.87 mg/dL
